Assays:
healthy volunteers [1] = assay: Subjective effects, ARCI short form, clephedrone study; type: in vivo, humans; details: 100 or 150 mg oral, n=8
Source text: (§1) The study evaluating the acute effects of clephedrone was designed as a non-controlled, prospective, observational, and naturalistic study. The procedures and evaluations included in this study have been described in previous studies evaluating other synthetic cathinones (mephedrone, methylone, alpha-PVP, NEP, HEXEN), phenethylamines (2C-B and 2C-E), or synthetic cannabinoids (JWH-122, JWH-210, UR-144).
(§2) This study consisted of one experimental session in which participants (N = 8; 6 women, 2 men) selected their oral dose of clephedrone based on their drug use experience and preferences. According to their dose selection, 3 women and 1 man ingested 100 mg of clephedrone, while the remaining 3 women and 1 man opted for a higher dose of 150 mg. […] Participants were recruited by word of mouth by the harm reduction organization Energy Control in Barcelona (Associació Benestar i Desenvolupament, ABD).
(§3) Subjective effects were evaluated with visual analog scales (VAS), the short form of the Addiction Research Center Inventory (ARCI), and the Evaluation of Subjective Effects of Substances with Abuse Potential questionnaire (VESSPA-SSE). In addition, the Sensitivity to Drug Reinforcement Questionnaire (SDRQ) and a pharmacological identification class questionnaire were used in the controlled study administering methylone.
(§4) The validated ARCI 49-item short form was used to evaluate and discriminate the subjective following five subscales that correspond to different classes of drugs of abuse: pentobarbital-chlorpromazine-alcohol group (PCAG) is susceptible to sedative effects, morphine-benzedrine group (MBG) is susceptible to euphoric effects, lysergic acid diethylamide (LSD) is susceptible to dysphoria and somatic symptoms, benzedrine (BG) is susceptible to intellectual efficiency and energy, and amphetamine (A) is susceptible to amphetamine-like effects.
(§5) Participants included in the naturalistic clephedrone study completed VAS at baseline, 0.50, 1, 1.5, 2, 3, 4, and 5 h, and ARCI and VESSPA at baseline, 1, 2, 3, 4, and 5 h after self-administering clephedrone. In the controlled study, VAS was performed at baseline and 0.25, 0.50, 0.75, 1, 1.5, 2, 3, 4, 6, 8, 10, and 24 h, and ARCI and VESSPA at baseline and 1, 2, 3, 4, 6, 8, and 10 h after administering methylone. Participants completed SDRQ and VAS sexual desire and arousal at baseline, 1 and 10 h, and the pharmacological class identification questionnaire at 8 h.
(§6) For statistical analysis, values of physiological (SBP, DBP, HR, and T) and subjective effects (VAS, ARCI, and VESSPA-SSE) were baseline–adjusted. Maximum effects (Emax) and the time needed to reach maximum effects (Tmax) were determined, and the area under the curve up to 5 h (AUC0–5h) for clephedrone and up to 6 h (AUC0–6h) for methylone was calculated using the trapezoidal rule. Emax and AUC values are presented as mean ± standard deviation, whereas Tmax is presented in median (range).
(§7) To find possible significant changes through the time course compared to baseline, a Dunnett multiple comparison test was carried out to compare each time point with baseline in both drug conditions. For clephedrone the comparisons were 0–0.5 h, 0–1 h, 0–1.5 h, 0–2 h, 0–3 h, 0–4 h and 0–5 h, and for methylone this analysis included 0–0.25 h, 0–0.5 h, 0–0.75 h, 0–1 h, 0–1.5 h, 0–2 h, 0–3 h, 0–4 h and 0–6 h. Given their different study designs, no comparative analysis between the time courses of both synthetic cathinones was conducted.

healthy volunteers [2] = assay: Subjective effects, VESSPA-SSE, clephedrone study; type: in vivo, humans; details: 100 or 150 mg oral, n=8
Source text: as §1, §2, §3
(§8) The VESSPA-SSE questionnaire, used to evaluate the subjective effects of stimulant drugs, The questionnaire includes 36-items and consists of six subscales that measure sedation (S), psychosomatic anxiety (ANX), changes in perception (CP), pleasure and sociability (SOC), activity and energy (ACT), and psychotic symptoms (PS).
as §5, §6, §7

humans = details: cited from earlier work
[3] = cited from earlier work
[4] = system: healthy male participants; assay: Subjective effects, ARCI short form, methylone trial; type: in vivo, humans; details: 150 or 200 mg oral
Experimental: (§9) Methylone pharmacology was evaluated in a study designed as a randomized, double-blind, placebo-controlled, crossover clinical trial. Four pilot studies were conducted administering methylone at oral doses of 50 (n = 3), 100 (n = 6), 150 (n = 5), and 200 mg (n = 7). Participants attended 3 experimental sessions separated by a one-week wash-out period and received two doses of methylone (one dose per experimental session) compared to placebo, except in the last pilot study in which participants received one dose of methylone, compared to MDMA and placebo. However, in this manuscript, only the results corresponding to the highest methylone doses (n = 12; 150 and 200 mg; mean dose = 179.2 mg) are presented, to enable comparison with clephedrone self-administration. Participants were recruited by word of mouth in the volunteer database of the clinical pharmacology unit.
(§10) Methylone hydrochloride of high purity in powder form was acquired from LGC Standards (Teddington, UK) for the controlled study. The Pharmacy Department of the Hospital Universitari Germans Trias i Pujol was responsible for manufacturing, storing, and dispensing identical and opaque soft gelatin capsules containing 50 mg of methylone or a placebo (maltodextrin). Treatment consisted of 5 capsules that combined methylone and/or a placebo to reach the target dose. Details can be found in the previous article.
as §3, §4, §5, §6, §7

[5] = system: healthy male participants; assay: Subjective effects, VESSPA-SSE, methylone trial; type: in vivo, humans; details: 150 or 200 mg oral
Experimental: as §9, §10, §3, §8, §5, §6, §7

## CNC(C)C(=O)c1ccc(Cl)cc1 (stereo not shown) [Clephedrone, 4-chloromethcathinone]
Healthy volunteers [1]
  ARCI A (amphetamine-like effects) Emax: 5.88 ± 0.99 points
  ARCI BG (intellectual efficiency) Emax: 4.13 ± 0.99 points
  ARCI LSD (dysphoria) Emax: 1.25 ± 2.19 points
  ARCI MBG (euphoria) Emax: 12.13 ± 2.03 points
  ARCI PCAG (sedation) Emax: 0.88 ± 4.19 points
Healthy volunteers [1]; AUC0–5h
  ARCI A (amphetamine-like effects) AUC0-5/6 h: 18.75 ± 3.54 points·h
  ARCI BG (intellectual efficiency) AUC0-5/6 h: 10.56 ± 5.30 points·h
  ARCI LSD (dysphoria) AUC0-5/6 h: 1.81 ± 4.39 points·h
  ARCI MBG (euphoria) AUC0-5/6 h: 37.56 ± 11.83 points·h
  ARCI PCAG (sedation) AUC0-5/6 h: –3.31 ± 5.44 points·h
Healthy volunteers [2]
  VESSPA ANX (psychosomatic anxiety) Emax: 1.33 ± 0.45 points
  VESSPA CP (changes in perception) Emax: 0.02 ± 0.06 points
  VESSPA CP (changes in perception) Tmax: 0.0 (0.0–1.0) h
  VESSPA S (sedation) Emax: 0.90 ± 0.73 points
  VESSPA SOC (pleasure and sociability) Emax: 2.85 ± 0.47 points
  VESSPA-ACT (activity and energy) Emax: 2.52 ± 0.46 points
  VESSPA-PS (psychotic symptoms) Emax: 0.38 ± 0.50 points
Healthy volunteers [2]; AUC0–5h
  VESSPA ANX (psychosomatic anxiety) AUC0-5/6 h: 3.01 ± 0.95 points·h
  VESSPA CP (changes in perception) AUC0-5/6 h: 0.06 ± 0.18 points·h
  VESSPA S (sedation) AUC0-5/6 h: 1.69 ± 1.43 points·h
  VESSPA SOC (pleasure and sociability) AUC0-5/6 h: 7.74 ± 3.00 points·h
  VESSPA-ACT (activity and energy) AUC0-5/6 h: 5.93 ± 2.65 points·h
  VESSPA-PS (psychotic symptoms) AUC0-5/6 h: 1.15 ± 2.02 points·h

## CNC(C)C(=O)c1ccc2c(c1)OCO2 (stereo not shown) [Methylone, 3,4-methylenedioxy-N-methylcathinone]
humans; naturalistic and controlled environments
  Persistence of heart rate increases: 8 to 10 h
humans; naturalistic conditions
  Time of peak effects following self-administration: 2 h
[3]
  Tmax in plasma: 2 h
[4]
  Tmax of effects collected using ARCI: 1 h
[4]; n=12
  ARCI A (amphetamine-like effects) Emax: 2.92 ± 1.73 points
  ARCI BG (intellectual efficiency) Emax: 1.50 ± 1.09 points
  ARCI LSD (dysphoria) Emax: –0.25 ± 1.29 points
  ARCI MBG (euphoria) Emax: 5.92 ± 4.68 points
  ARCI PCAG (sedation) Emax: 2.17 ± 3.49 points
[4]; AUC0–6h, n=12
  ARCI A (amphetamine-like effects) AUC0-5/6 h: 4.33 ± 2.77 points·h
  ARCI BG (intellectual efficiency) AUC0-5/6 h: 0.83 ± 1.81 points·h
  ARCI LSD (dysphoria) AUC0-5/6 h: –0.96 ± 1.81 points·h
  ARCI MBG (euphoria) AUC0-5/6 h: 8.25 ± 6.89 points·h
  ARCI PCAG (sedation) AUC0-5/6 h: 5.46 ± 8.86 points·h
[5]
  Tmax of VESSPA subscales: 1 h
[5]; n=12
  VESSPA ANX (psychosomatic anxiety) Emax: 0.92 ± 0.51 points
  VESSPA CP (changes in perception) Emax: 0.00 ± 0.00 points
  VESSPA CP (changes in perception) Tmax: 0.0 (0.0–0.0) h
  VESSPA S (sedation) Emax: 0.56 ± 0.59 points
  VESSPA SOC (pleasure and sociability) Emax: 1.24 ± 1.56 points
  VESSPA-ACT (activity and energy) Emax: 0.82 ± 0.84 points
  VESSPA-PS (psychotic symptoms) Emax: 0.06 ± 0.11 points
[5]; n=12, listed as methylone
  VESSPA SOC (pleasure and sociability) Emax: higher than 1 points
[5]; AUC0–6h, n=12
  VESSPA ANX (psychosomatic anxiety) AUC0-5/6 h: 2.51 ± 2.22 points·h
  VESSPA CP (changes in perception) AUC0-5/6 h: 0.00 ± 0.00 points·h
  VESSPA S (sedation) AUC0-5/6 h: 1.39 ± 1.96 points·h
  VESSPA SOC (pleasure and sociability) AUC0-5/6 h: 1.63 ± 2.13 points·h
  VESSPA-ACT (activity and energy) AUC0-5/6 h: 1.02 ± 1.08 points·h
  VESSPA-PS (psychotic symptoms) AUC0-5/6 h: 0.10 ± 0.24 points·h

Reference: PMC12785453, “Oral Fluid Concentrations and Pharmacological Effects of Clephedrone and Methylone in Humans” (International Journal of Molecular Sciences, 2025)
